Reference: US10626100B2, “Selective HDAC6 inhibitors” (The Trustees of Columbia University in the City of New York, priority 2013, dated 2020)
Entries after “also recorded” stand apart in the source; their conditions may differ.

Tests used:
Mouse toxicity study = format: in vivo; details: mice, intraperitoneal, daily for 5 days, 100, 200, or 300 mg/kg
Description: FIG. 6. Average weight of immune-deficient mice treated daily by 30 μL intraperitoneal injection with indicated doses of compound 8. DMSO is the vehicle control.
Toxicity of compound 8 in mice was determined. […] Mice were intraperitoneally injected daily for 5 days with 100, 200, or 300 mg/kg compound 8. […] The effects of compound 8 on the acetylation of alpha-tubulin and histones in the spleen isolated from mice treated with compound 8 were analyzed at three time points after the administration of the drug.

HDAC6 = target: T1, HDAC6 (Homo sapiens, UniProt Q9UBN7); assay: Inhibition of recombinant HDAC6
T1 sequence (Q9UBN7 1-1215): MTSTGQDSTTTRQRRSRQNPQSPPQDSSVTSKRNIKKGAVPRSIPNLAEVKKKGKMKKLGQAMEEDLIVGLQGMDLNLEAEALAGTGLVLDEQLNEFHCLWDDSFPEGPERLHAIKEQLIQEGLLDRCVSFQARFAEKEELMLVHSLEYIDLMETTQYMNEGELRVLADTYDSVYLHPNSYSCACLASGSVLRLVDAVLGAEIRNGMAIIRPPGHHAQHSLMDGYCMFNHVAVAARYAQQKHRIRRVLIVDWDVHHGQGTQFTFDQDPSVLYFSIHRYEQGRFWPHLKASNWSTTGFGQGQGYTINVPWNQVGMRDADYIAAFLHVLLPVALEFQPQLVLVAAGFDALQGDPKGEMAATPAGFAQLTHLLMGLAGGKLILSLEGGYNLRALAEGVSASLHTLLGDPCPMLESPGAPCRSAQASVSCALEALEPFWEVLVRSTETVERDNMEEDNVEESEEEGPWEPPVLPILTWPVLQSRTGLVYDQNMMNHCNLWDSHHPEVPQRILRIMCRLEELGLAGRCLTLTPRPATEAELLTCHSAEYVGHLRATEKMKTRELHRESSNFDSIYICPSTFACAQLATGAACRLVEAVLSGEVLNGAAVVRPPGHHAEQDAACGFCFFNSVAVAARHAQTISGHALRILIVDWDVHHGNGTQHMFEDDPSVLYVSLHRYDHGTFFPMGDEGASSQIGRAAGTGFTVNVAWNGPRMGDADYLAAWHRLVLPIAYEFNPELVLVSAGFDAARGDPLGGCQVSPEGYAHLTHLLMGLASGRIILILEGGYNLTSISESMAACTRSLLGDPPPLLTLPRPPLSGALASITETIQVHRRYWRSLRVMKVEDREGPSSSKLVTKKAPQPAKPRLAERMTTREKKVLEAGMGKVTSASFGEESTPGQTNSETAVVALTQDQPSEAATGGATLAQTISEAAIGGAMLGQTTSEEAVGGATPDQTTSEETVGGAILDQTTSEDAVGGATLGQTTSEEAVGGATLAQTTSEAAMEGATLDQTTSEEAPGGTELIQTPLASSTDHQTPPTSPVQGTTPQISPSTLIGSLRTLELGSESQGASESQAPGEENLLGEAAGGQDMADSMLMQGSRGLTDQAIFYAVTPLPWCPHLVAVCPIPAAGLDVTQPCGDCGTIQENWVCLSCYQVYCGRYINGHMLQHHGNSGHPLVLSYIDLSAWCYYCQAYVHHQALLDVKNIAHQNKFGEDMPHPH

[1] = system: acetylated alpha-tubulin and acetylated histone H3 in HFS (human foreskin fibroblast) cells; assay: Accumulation of acetylated proteins in HFS normal cells (western blot); format: cell-based
Description: FIG. 5. Western blots of acetylated alpha-tubulin (Acet-Tub) and acetylated histone H3 (Acet-H3) in HFS (normal) and LNCaP (transformed) cells treated with compound 8 at 8, 16, 32, and 64 μM for 24 h. Western blots of GAPDH and total histone H3 (Total-H3) are loading controls.
(§1) Recombinant HDAC1 and HDAC6 are used to evaluate the selective inhibitory potency of each compound. Cell based assays: Normal cells (Human Foreskin Fibroblast cells), LNCaP (human prostate cancer cells), MCF-7 (human breast cancer cells, A549 (human adenocarcinoma of lung cells) and ARP-1 (human multiple myeloma cells) are used in these assays. Cells were cultured for up to 72 hr without and with the potential HDAC6-selective inhibitor. SAHA was used as a control. Cell number and cell viability were determined by enumeration. Proteins were extracted from cells and assayed for accumulation of acetylated tubulin and acetylated histones. All methods are described in Namdar et al., PNAS, 2010, 107:20003-8. In vivo animal studies: Potential HDAC6 inhibitor compounds are further assayed by administration to mice for up to 5 days with daily injections. Animals are sacrificed and tissues are analyzed for accumulation of acetylated tubulin and acetylated histones.

[2] = system: LNCaP (human prostate adenocarcinoma) cells; assay: Cell growth and viability of LNCaP cells; format: cell-based
Description: FIG. 3. Cell growth of HFS (normal) and LNCaP (transformed) cells treated with compound 8 over 72 h.
FIG. 4. Cell viability of HFS (normal) and LNCaP (transformed) cells treated with compound 8 over 72 h.
as §1
The effect of compound 8 on the cell growth and viability of normal (HFS, human foreskin fibroblast) and transformed (LNCaP, human prostate adenocarcinoma) cells cultured with 8, 16, 32 or 64 μM HPB for up to 72 h was evaluated.

[3] = HFS cells, 8 μM to 64 μM, 24 h, FIG. 5
[4] = normal cells, concentrations as high as 16 μM

O=C(NO)c1ccc(CN(CCO)C(=O)Cc2ccccc2)cc1 [Compound 8, N-hydroxy-4-((N-(2-hydroxyethyl)-2-phenylacetamido)methyl) benzamide]
tolerability in animals (Mouse toxicity study): well tolerated
weight loss (Mouse toxicity study; FIG. 6): no weight loss
potency as inhibitor of HDAC6 compared with SAHA (HDAC6): one hundred fold more potent
IC50 (HDAC6; read-out: IC50 (nM) HCAC6, recombinant HDAC6): 31 nM
accumulation of acetylated alpha-tubulin [1, 3]: caused accumulation of acetylated alpha-tubulin
accumulation of acetylated histones [1, 3]: not of acetylated histones
accumulation of acetylated PRX [1, 4]: selectively induced accumulation of acetylated alpha-tubulin and acetylated PRX
accumulation of acetylated alpha-tubulin [1, 4]: selectively induced accumulation of acetylated alpha-tubulin and acetylated PRX
accumulation of acetylated histones [1, 4]: not of acetylated histones
cell growth (cell number) ([2]; LNCaP, 8, 16, 32 or 64 μM, up to 72 h, FIG. 3): inhibited cell growth of normal and transformed cells in a concentration dependent manner; also recorded: inhibited cell number
cell death / cell viability ([2]; LNCaP, 8, 16, 32 or 64 μM, up to 72 h, FIG. 4): did not induce cell death of normal or transformed cells; also recorded: does not decrease cell viability
death of LNCaP cells ([2]; concentrations as high as 32 μM): no detectable death of LNCaP cells
